Among the data in ChEMBL document CHEMBL1157539, “Thousands of chemical starting points for antimalarial lead identification” (Nature, 2010) are XC50 values, retold here.

The structures appear in SMILES notation.

The test system of the experiment is Plasmodium falciparum. Kind of experiment: GSK_TCMDC: Inhibition of Plasmodium falciparum 3D7 in whole erythrocytes, using parasite LDH activity as an index of growth. The class given is functional, organism-based. The settings on record: Plasmodium falciparum, 3D7.
Take `O=[N+]([O-])c1ccc(-c2nc3cc(C4=NC5CCCCC5N4)ccc3[nH]2)cc1` (stereo not drawn): the XC50 is 691 nM. Then `O=C(c1cccc(-c2ccc(-c3nc4cc(F)ccc4[nH]3)s2)c1)N1CCCCC1CN1CCC(O)C1` (stereo not drawn), with 715 nM; and `COc1ccc(CN(C)C(=O)CCNS(=O)(=O)c2ccc3c(c2)OCCCO3)cc1F`, with 656 nM; and `O=C(Nc1ccc(C(=O)Oc2ccc(-c3ccccc3)cc2)cc1)N[C@@H](Cc1ccc(O)cc1)C(=O)NC1CCN(Cc2ccc(O)cc2)C1` (stereo partly drawn), with 803 nM.

Regarding `CCN(CCCN1CCCCC1)c1cc(C)nc(Nc2cc(F)cc(F)c2)n1`, the XC50 amounted to 570 nM.

In the case of `O=C(NCC1CCC(CNCCc2ccccc2)CC1)Nc1ccc(Cl)c(Cl)c1` (stereo not drawn), the XC50 came to 745 nM. The same measure for `COc1ccc(NC(=O)NC2CCN(CCCCCNC(=O)/C=C/c3ccc(Cl)c(Cl)c3)CC2)cc1`: 1010 nM; for `O=C(/C=C/c1ccc(Cl)c(Cl)c1)NCCCCCN1CC[C@H](NC(=O)/C=C/c2ccccc2)C1`: 1000 nM.

`COc1ccc2ncc(Cl)c([C@@H](O)CN3CCC(NCc4cc5c(cn4)OCCO5)CC3)c2c1` returned an XC50 of 59.5 nM. Then `Cc1cccc2c(CON3C(N)=NC(N)=NC3(C)C)cccc12`, with 3.2 nM. The same measure for `COc1ccc(NC(=O)/C=C/c2ccccc2Cl)cc1OCCN1CCC(NCc2ccccc2)CC1`: 352 nM. Then `Cc1[nH]c2ccccc2c1C1=CCN(CCCCC2(C)C(=O)Nc3cccc(F)c32)CC1` (stereo not drawn), with 364 nM; and `O=C(NC1CCC(CN2CCC(c3c[nH]c4ccccc34)CC2)CC1)c1cc(-c2ccccc2Cl)oc1C(F)(F)F` (stereo not drawn), with 771 nM. As for `O=C(Nc1ccc2c(c1)CCC2)c1ccc(CN2CCCN(Cc3cccc(O)c3)CC2)cc1`, the XC50 was 894 nM. Then `COc1ccc2nc(C)cc(NC3Cc4ccccc4C3)c2c1`, with 839 nM; and `COc1ccc(CCn2c(=N)c(C(=O)NCc3ccc(C)cc3)cc3c(=O)n4ccccc4nc32)cc1`, with 1130 nM. The same measure for `COc1ccc(Nc2nccc(N3CCC(NC(=O)Nc4cccc(C(C)=O)c4)C3)n2)cc1` (stereo not drawn): 821 nM.

Turning to `COc1cccc(C(=O)C2CC2CN(C)CCC(O)c2ccc(Cl)c(Cl)c2)c1` (stereo not drawn), the XC50 was found to be 756 nM.

`COc1ccc(-c2cccc(NC(=O)c3ccccc3)c2)cc1CN1CCCN(C)CC1` showed an XC50 of 733 nM. Then `COc1ccc(Nc2c3ccc(Cl)cc3nc3ccc(OC)cc23)cc1`, with 441 nM. Then `Cn1nc(-c2ccc(CN[C@@H]3CCc4ccc(O)cc43)cc2)c2cnc(NCCCN3CCCC3)nc21`, with 797 nM; and `Cc1ccc(CC(C)NCC(O)c2cccc(C(F)(F)F)c2)cc1F` (stereo not drawn), with 916 nM; and `O=C(NC1CCN(CC2(c3ccccc3F)CCCC2)CC1)c1cc[nH]n1`, with 997 nM. The same measure for `C#CCOc1ccccc1CN1CCC(N2CCc3cc(NC(=O)c4cc(C)on4)ccc32)C1` (stereo not drawn): 675 nM; for `CC1(C)CC(=O)c2c(O)cc(OCc3ccncc3)cc2O1`: 1040 nM. Take `CC[C@H]1CN2CC[C@@H]1C[C@H]2[C@H](O)c1ccnc2ccc(Cl)cc12`: the XC50 is 119 nM. The same measure for `COc1cccc(CCN(Cc2ccccc2-c2ccc(CNC3CC(C)(C)NC(C)(C)C3)cc2)C(=O)NC2CCCCC2)c1`: 932 nM. The same measure for `COc1cccc(-c2ccc(C(=O)NC3CCN(Cc4ccc(C(C)(C)C)cc4)CC3)s2)c1`: 1600 nM; for `CNC(=O)c1cc(S(=O)(=O)Nc2ccc(OC)cc2)cs1`: 1130 nM.

`CCn1cnc2c(Nc3cccc([N+](=O)[O-])c3)nc(N3CCC(N4CCCCC4)CC3)nc21` registered an XC50 of 954 nM.

In turn, `COc1ccc(S(=O)(=O)N2CCC(NS(=O)(=O)c3ccc(F)cc3)CC2)cc1` returned an XC50 of 1330 nM.

`COc1ccc(C2CCN(CCCCNC(=O)c3ccc(NC(=O)c4ccc(Cl)cc4)cc3)CC2)c(OC)c1` came in with an XC50 of 570 nM. With `CN1CCN(c2ccc3[nH]c(-c4ccc5[nH]c(-c6ccc([N+](=O)[O-])c(N)c6)nc5c4)nc3c2)CC1`, the XC50 turned out to be 105 nM. As for `CCCN(Cc1ccc(OCC)cc1)Cc1cc(=O)c2cc(Cl)ccc2[nH]1`, the XC50 was 1260 nM. Compound `CCC(CC)(Cc1ccccc1)NC(=O)[C@H](CC1CCCCC1)Nc1ccc(C#N)c2ccccc12` came in with an XC50 of 634 nM. The same measure for `c1ccc2c(NCCCCCCCCCNc3c4ccccc4nc4ccccc34)c3ccccc3nc2c1`: 298 nM; for `Clc1cccc(CNC2CCN(CC3CCCCC3)CC2)c1`: 912 nM. Regarding `Cc1ccc2cc(C3NC(=O)c4ccccc4N3)c(Cl)nc2c1` (stereo not drawn), the XC50 was found to be 945 nM. For `CN(C)Cc1cccc(-c2ccc(NC(=O)c3ccc4c(=O)n(C5CCCCC5)cnc4c3)cc2)c1`, the XC50 amounted to 744 nM. The same measure for `CN1CCN(c2cccc(NC(=O)c3ccc(-c4ccc(C#N)cc4)cc3)c2)CC1`: 1260 nM. In turn, `CCOc1c(CNCCCCCCNCc2ccc3ccccc3c2OCC)ccc2ccccc12` yielded an XC50 of 759 nM. Then `O=C(NC1CCCC1)c1ccc(N2CCC(NCc3cc4cc(Cl)ccc4[nH]3)CC2)cc1`, with 1220 nM. The same measure for `CC1(CCCCN2CCC(c3c[nH]c4cnccc34)CC2)C(=O)Nc2cccc(Cl)c21` (stereo not drawn): 868 nM; for `COc1ccc(-c2cccc(CNCc3ccc(F)cc3)c2)cc1S(=O)(=O)NCCN1CCCC1`: 1850 nM. The compound `CC(=O)Oc1c(Cl)c(C)nc(C)c1-c1ccc(Oc2ccc(Cl)cc2)cc1` had an XC50 of 31.5 nM.

As for `O=C(Nc1cccc(CN2CCCN(Cc3ccc(O)cc3)CC2)c1)c1cccc(C(F)(F)F)c1`, the XC50 is 314 nM.

Compound `Cc1cc(=O)[nH]c(-n2nc(C)cc2NC(=O)CC(c2ccccc2)c2ccccc2)n1` had an XC50 of 1100 nM. The same measure for `O=c1cc(NCCCNC2CCOc3c(I)cc(Cl)cc32)[nH]c2ccccc12` (stereo not drawn): 832 nM; for `CCOc1ccc2[nH]c(C)cc(=NN=Cc3ccncc3)c2c1`: 991 nM.

`Clc1ccc(Nc2nc(Nc3ccc(Cl)c(Cl)c3)nc(Sc3nc4ccccc4[nH]3)n2)cc1Cl` yielded an XC50 of 490 nM. For `O=C(C=CC(=O)N1CCCCC1)NCc1ccccc1`, the XC50 was determined as 732 nM.

With `Cc1cccc2nc(-c3cccc(-c4ccc(NC(=O)C(=O)c5cccn5C)cc4)c3)[nH]c12`, the XC50 amounted to 375 nM.

Take `COc1cccc2cc(C(=O)N[C@@H](CC(C)C)C(=O)N[C@H](C=NN3CCOC3=O)CC(C)C)oc12`: the XC50 came out at 741 nM. The same measure for `CC(C)(C)C1CCC(C(=O)c2ccc3ccccc3c2O)CC1` (stereo not drawn): 751 nM; for `CC(CN(C)C)C(=O)Nc1ccc(-c2csc(-c3nc4ccccc4[nH]3)c2)cc1` (stereo not drawn): 1320 nM. The same measure for `Cc1noc(=O)c2ccc(NC(=O)C(O)(CSc3ccccc3)CC(C)C)cc12` (stereo not drawn): 722 nM; for `O=C(/C=C/c1ccc(Cl)c(Cl)c1)NCCCCCN1CCC(NC(=O)NC2CCCCCC2)CC1`: 464 nM; for `COc1ccc(-c2nc(NC(=O)CS(=O)(=O)c3ccccc3)sc2C)cc1`: 596 nM.

Compound `CCCCN(CCCC)CCCN(CCCN(CCCC)CCCC)c1cc(C)nc(Nc2ccc3cc(Br)ccc3c2)n1` showed an XC50 of 320 nM.

As for `O=C(Nc1ccsc1)Nc1cccc(-c2cccc(-c3nc4cc(C(F)(F)F)ccc4[nH]3)c2)c1`, the XC50 was determined as 150 nM.

Regarding `COc1ccc2cc(C(c3nnnn3CC3CCCO3)N3CCc4ccccc43)c(=O)[nH]c2c1` (stereo not drawn), the XC50 came out at 795 nM. Then `Cc1c(NC(=O)COc2ccc(Cl)cc2C(=O)c2cc(F)cc(C(F)(F)F)c2)ccc2ncsc12`, with 1020 nM. Then `CCCCCCN(CCCCCC)CC(O)c1c(OC)ccc2ccccc12` (stereo not drawn), with 567 nM. The same measure for `O=C(NCc1cccs1)[C@H](Cc1ccccc1)Nc1ccnc(NCCc2ccc(F)cc2)n1`: 1450 nM; for `c1cc(-c2ccc(CNCc3ccsc3)cc2)cc(-c2nc3ccccc3[nH]2)c1`: 156 nM; for `COc1ccc(C(=O)CCC(=O)N(Cc2ccc(-c3ccc(CNCCc4ccc(S(C)(=O)=O)cc4)cn3)cc2)C(C)CN(C)C)cc1F` (stereo not drawn): 650 nM. With `c1ccc(-c2nc3ccccc3[nH]2)c(Nc2ccnc3cc(-c4nccs4)ccc23)c1`, the XC50 stood at 740 nM.

Compound `Cc1cc(N2CCCC2)nc(Nc2ccc(NC(=O)CC(C)C)cc2)n1` displayed an XC50 of 841 nM. The same measure for `COC(=O)c1ccc(CC(C)NCC(O)c2ccccc2Cl)cc1` (stereo not drawn): 1010 nM; for `Cc1nc(NCCCn2ccnc2)cc(-c2cncc(-c3ccc(OC(F)(F)F)cc3)c2)n1`: 616 nM; for `Nc1nc(N)c2c(Cl)c(N3CCOCC3)ccc2n1`: 76.9 nM.

Regarding `CCN(CC)CCCC(C)Nc1c(-c2ccc(C)cc2)cnc2ccccc12` (stereo not drawn), the XC50 came to 200 nM. As to `Cc1ccc(C(=O)Cn2nc(-c3ccc(C)c(S(=O)(=O)N4CCCC4)c3)ccc2=O)cc1`, the XC50 worked out at 513 nM.

Compound `Cc1cc(O)c(-c2ccc(Sc3ccc(Cl)cc3)cc2)c(C)n1` returned an XC50 of 969 nM. The same measure for `Clc1ccc2c(NCCNc3ccnc4cc(Cl)ccc34)ccnc2c1`: 396 nM; for `Cc1ccc(NC(=O)NC2CCN(CCCCCNC(=O)C3CC3c3ccc(Cl)c(Cl)c3)CC2)cc1` (stereo not drawn): 540 nM; for `O=C(/C=C/c1ccc(Cl)c(Cl)c1)NCCCCCN1CCCN(C(=S)Nc2cccc(Cl)c2)CC1`: 1050 nM. The same measure for `COc1ccc2c(=O)c3ccc(OC)cc3[nH]c2c1`: 810 nM; for `Cc1cccc(CNc2nc(C)cc(NCCC(=O)Nc3ccccc3)n2)c1`: 1050 nM. Compound `Oc1ccc(Cl)cc1-c1cc(C(F)(F)F)nc(-c2ccccc2)n1` yielded an XC50 of 753 nM. The same measure for `CN1CCC(C(=O)Nc2ccc(-c3cccc(-c4nc5cc(F)ccc5[nH]4)c3)cc2)CC1`: 792 nM. Compound `CC(C)CNCc1ccc(-c2ccc(CNC3CCN(Cc4ccccc4)CC3)cc2)cc1` showed an XC50 of 558 nM.

In turn, `CC1(C)NC(N)=NC(=N)N1OCCCSc1ccccc1` had an XC50 of 3.2 nM. Then `CS(=O)(=O)c1ccc(-c2cncc(Cl)n2)cc1`, with 770 nM; and `COc1ccccc1C1CCN(C2CCC(NC(=O)/C=C/c3ccc(OC(F)(F)F)cc3)CC2)CC1` (stereo not drawn), with 1350 nM; and `CC(NC(=O)c1ccc(O)c(-c2ccc(Cl)c(Cl)c2)c1)C(=O)NC1CCCCC1` (stereo not drawn), with 844 nM. Then `CC(C)Cc1cn(-c2nc(C(=N)N)cs2)c2cc(Cl)ccc12`, with 154 nM; and `Cc1cccc(C)c1CNc1cccc(-c2nc(C)c(C)[nH]2)c1`, with 883 nM.
